Assay results published in the METLIN SMRT retention time set (Domingo-Almenara et al. 2019).

Test: gradient 5% acetonitrile 3 min, to 50% in 2 min, to 85% in 15 min, held 3 min, 100 µL/min
Conditions: column: Zorbax Extend-C18 2.1 x 50 mm; eluents: water / acetonitrile, 0.1% formic acid
Procedure, shortened: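 A Zorbax Extend-C18 column (2.1 × 50 mm, 1.8 μm) run at 100 μL/min with water and acetonitrile, both containing 0.1% formic acid, separated mixtures of ~100 pure standards. The HPLC was coupled to a quadrupole time-of-flight mass spectrometer operated in positive and negative ionization mode, with dead and dwell volumes of 40 μL and 900 μL. Each retention time was taken from a computationally picked adduct peak that was then manually inspected.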

| RP-LC retention time | SMILES |
| --- | --- |
| 581 s | O=C(Cn1nc(C(=O)N2CCCC2)c2ccccc21)N1CCC(N2CCCCC2)CC1 |
| 825 s | C=CC(=O)Nc1ccc2ncnc(Nc3ccc(OCc4cccc(F)c4)c(Cl)c3)c2c1 |
| 816 s | CC(=O)N1CCCc2ccc(NC(=O)Cc3ccc(Cl)cc3)cc21 |
| 636 s | COCCc1noc(C2CN(C(=O)c3cnc(C)cn3)C2)n1 |
| 1010 s | COc1ccc(NC(=O)CSc2cc(N3CCN(c4ccccc4F)CC3)ncn2)cc1 |
| 837 s | Cc1cc(C)cc(N2C=NS(=O)(=O)c3cccnc32)c1 |
| 743 s | CCNC(=O)c1nccnc1NC(=O)c1ccccc1 |
| 1220 s | CCc1nc(-c2cc(S(=O)(=O)N3CCN(c4ccc(F)cc4)CC3)c(C)s2)cs1 |
| 718 s | Cc1c(F)cccc1NC(=O)Nc1ccc2nnc(C)n2c1 |
| 1120 s | O=C(CCS(=O)(=O)c1ccccc1)Nc1nc(-c2ccccc2)cs1 |
| 566 s | CCCn1ncc(N2CCC(C(=O)N3CCN(C(C)C)CC3)CC2)cc1=O |
| 780 s | Cc1cc(C(=O)Nc2nc3c(F)cccc3s2)no1 |
| 906 s | c1ccc(OCc2nc(-c3cccc(-c4ccn[nH]4)c3)no2)cc1 |
| 541 s | CNC(=O)C(=O)NCC1CCN(S(C)(=O)=O)CC1 |
| 583 s | COc1ccc(N2CCN(CCNC(=O)c3ccc(Br)o3)CC2)cc1 |
| 1040 s | COc1ccc(OCc2nc(-c3ccc(NS(=O)(=O)c4cccs4)cc3)no2)cc1 |
| 736 s | CCC(C)NC(=O)C1(c2ccc(NS(C)(=O)=O)cc2)CCCCC1 (stereo not given) |
| 1320 s | Cc1ccc(-c2nc(C3CCN(S(=O)(=O)c4ccc(C)c(C)c4)CC3)no2)cc1 |
| 1010 s | CCc1ccccc1N(C)C(=O)c1cc2c(=O)n(CC)c3ccccc3n2n1 |
| 648 s | Oc1cc2c(c(Cl)c1O)CCNC[C@@H]2c1ccccc1 |
| 784 s | O=C(O)c1ccc2c(c1)n(Cc1cccc(F)c1)c(=O)c1ccnn12 |
| 1090 s | CCc1cc(=O)n(CC(=O)Nc2ccccc2)c(-c2ccccc2)n1 |
| 995 s | Cc1cc(=O)n(CC(=O)Nc2cccc(C#N)c2)c(-c2ccc(F)cc2)n1 |

| RP-LC retention time | SMILES |
| --- | --- |
| 710 s | Cn1cc(C(F)(F)F)nc1-c1ccc(OCC(O)CNCCOc2ccc(O)c(C(N)=O)c2)cc1 (stereo not given) |
| 651 s | COc1ccc(CC(=O)N2C[C@@H]3C[C@H](NS(C)(=O)=O)[C@H]2C3)cc1Cl |
| 615 s | CCNC(=O)C(=O)NCC(c1ccc2c(c1)CCCN2C)N1CCCC1 (stereo not given) |
| 823 s | CN1c2cc(C(=O)N3CCN(c4ccccc4)CC3)ccc2C(=O)N2CCCCC21 (stereo not given) |
| 797 s | Cc1ccc(Nc2nc(C)cc(N3CCN(S(=O)(=O)c4cc(F)ccc4F)CC3)n2)cc1 |
| 726 s | Cn1cc(C(CNC(=O)Nc2ccccc2Cl)c2cccnc2)c2ccccc21 (stereo not given) |
| 862 s | O=C(Nc1cccc(C(F)(F)F)c1)C1CCN(C(=O)C2Sc3ccccc3NC2=O)CC1 (stereo not given) |
| 713 s | CCn1cc(-c2ccc(Cl)cc2)cc1C(=O)N1CCC(N2CCCCC2)CC1 |
| 796 s | Cc1oc(C2CCN(C(=O)COc3ccccc3)CC2)nc1C(=O)N1CCCCC1 |
| 692 s | CSc1ncc2[nH]c(C(O)c3ccccc3)nc2n1 (stereo not given) |
| 892 s | Cn1c(=O)c(N2CCC(C(=O)NCCc3c[nH]c4ccc(Cl)cc34)CC2)nc2ccccc21 |
| 913 s | Cc1ccc(N2CCN(C(=O)c3cn(-c4ccc(NC(=O)C5CC5)cn4)cn3)CC2)c(C)c1 |
| 661 s | O=C(CC1CCCCC1)NCC(=O)Nc1nc2ccccc2[nH]1 |
| 836 s | CC(C)c1cc(C(=O)NC2CCCCCC2)n[nH]1 |
| 740 s | FC(F)(F)c1cccc(-c2cncc(N3CCN(c4ccccn4)CC3)n2)c1 |
| 970 s | O=C(NC1CC1)c1ccc(-c2nc3cccnc3n(C3CCCC3)c2=O)cc1 |
| 681 s | Cn1cc(S(=O)(=O)N2CCC(C(=O)N3CCCC3)CC2)cc1C(=O)N1CCCCC1 |
| 702 s | N#Cc1ccc(Cl)cc1NC(=O)C1CCN(c2ccc(-c3cccs3)nn2)CC1 |
| 653 s | c1ccc2oc(SCc3cn4ccsc4n3)nc2c1 |
| 1040 s | Cc1ccc(C(=O)Nc2nnc(SCc3nnc(-c4ccccc4C)o3)s2)cc1 |
| 889 s | Cc1ccccc1-c1csc2c(=O)n(Cc3ccc(N4CCCC4=O)cc3)cnc12 |
| 653 s | CCCn1c(=O)c(-c2ccc(C(=O)NCCCN3CCCC3)cc2)nc2ccccc21 |
| 787 s | CC(=O)N1CCc2cc(S(=O)(=O)C(C)CC(=O)N3CCN(c4ccccc4)CC3)ccc21 (stereo not given) |

| RP-LC retention time | SMILES |
| --- | --- |
| 866 s | Cc1c(F)cccc1NC(=O)NC1CCN(c2ccc(F)cc2)C1=O (stereo not given) |
| 701 s | CC(=O)Nc1ccc(-n2cnc(C(=O)NC(C)c3ccc(F)cc3)c2)nc1 (stereo not given) |
| 919 s | COc1ccc(OC)c(NC(=O)N(C)CCc2noc(COc3ccc(F)cc3)n2)c1 |
| 910 s | CCc1ccc(NC(=O)c2cccn2Cc2noc(C)n2)cc1 |
| 885 s | O=C(CN1C(=O)CCCc2cc(S(=O)(=O)N3CCCCC3)ccc21)Nc1ccccc1 |
| 758 s | COc1ccc(CCNC(=O)c2ccc(-n3nc(C)cc3C)nc2)cc1OC |
| 666 s | COc1ccccc1OCCN1C(=O)C(NC(C)=O)c2ccccc21 (stereo not given) |
| 1140 s | Cc1ccccc1N1CCN(S(=O)(=O)c2cc(-c3nnc(C4CCC4)o3)co2)CC1 |
| 1050 s | CN(Cc1ccccc1)C(=O)c1cn(-c2cc(-c3nc(C(C)(C)C)no3)ccn2)cn1 |
| 854 s | O=C(NCc1ccc2c(c1)OCO2)c1nnc(-c2ccc(S(=O)(=O)N3CCCC3)cc2)o1 |
| 739 s | O=S(=O)(c1ccc(Cl)c(-c2nnc(-c3ccccc3)o2)c1)N(CCO)CCO |
| 1100 s | CCN1C(=O)C2(CCN(S(=O)(=O)c3ccc(Cl)c(C)c3)CC2)c2ccccc21 |
| 662 s | Cc1ccc(CNC(=O)Nc2c(-c3ccccc3)nc3ccccn23)cc1 |
| 834 s | CCN1C(=O)c2cccnc2Sc2cc(NC(=O)c3ccccc3F)ccc21 |
| 643 s | COc1ccc(-c2nc(C)cc(C)c2CNS(=O)(=O)c2ccc(OC)cc2)cc1 |
| 689 s | COc1ccc(Cl)cc1S(=O)(=O)N1CCCC(C(N)=O)C1 (stereo not given) |
| 818 s | CC(C(=O)N1CCCc2ccccc21)n1cnc2nc3c(cc2c1=O)CCCC3 (stereo not given) |
| 574 s | COc1ccc(-c2nc(NCc3cccnc3)c3ccccc3n2)cc1 |
| 1020 s | CCOC(=O)c1cc2ccsc2n1CC(=O)Nc1ccc(F)c(F)c1 |
| 850 s | O=C(COc1ccccc1)N1CCN(C(=O)c2nnn3c2COC(c2ccccc2)C3)CC1 (stereo not given) |
| 591 s | O=C(CN1C(=O)CCC1=O)N1CCC(c2noc(-c3cnccn3)n2)C1 (stereo not given) |
| 793 s | Cc1ccc2nc(-c3cc(Br)ccc3F)c(Nc3ccccc3C)n2c1 |
| 616 s | O=C(c1ccc2c(c1)OCO2)N1CCN(c2nnc3ccccn23)CC1 |

| RP-LC retention time | SMILES |
| --- | --- |
| 783 s | O=C(Nc1nnc(-c2ccco2)o1)C1c2ccccc2Oc2ccccc21 |
| 722 s | CN(CC1CCOC1)C(=O)Nc1ccccc1Cl (stereo not given) |
| 634 s | O=C(NCc1ccc(N2CCCC2)nc1)c1ccc(Cl)s1 |
| 753 s | CCOc1ccc(NC(=O)c2oc3cc(C)ccc3c2C)c2cccnc12 |
| 851 s | Cn1cnc2c(C(=O)N3CCC(c4ccccc4)C3)nn(-c3ccccc3)c2c1=O (stereo not given) |
| 980 s | CCCCn1cc(S(=O)(=O)Nc2ccc(C)cc2F)c2cccnc21 |
| 898 s | O=C(Cn1cccc1-c1nnc(C2CCC2)o1)N1CCN(c2ccccc2)CC1 |
| 562 s | O=C(NCCCO)c1ccc(CSc2nc3ccccc3[nH]2)cc1 |
| 652 s | c1ccc(OCc2nc(-c3ccc4c(c3)ncn4CCN3CCCCC3)no2)cc1 |
| 1240 s | c1ccc(-c2ccc3c(c2)NC(C2Nc4cc(-c5ccccc5)ccc4O2)O3)cc1 (stereo not given) |
| 697 s | O=C(Nc1cccc(F)c1)Nc1cccc(-c2ccc(N3CCOCC3)nn2)c1 |
| 1350 s | Cc1ccc(NC(=O)C2CCCN(c3nc4ccccc4nc3C(F)(F)F)C2)c(Cl)c1 (stereo not given) |
| 698 s | CN(C)C(=O)c1cc2c(s1)CCC(C(=O)Nc1ccc3c(c1)OCO3)C2 (stereo not given) |
| 661 s | O=C(NCc1cccs1)C1CCCN(c2cnc3nccnc3c2)C1 (stereo not given) |
| 732 s | O=S(=O)(Cc1ccccc1F)N1CCCC(Cn2c(C3CC3)nc3cccnc32)C1 (stereo not given) |
| 734 s | CCOc1ccccc1C1CC(=O)NC(SCC(=O)Nc2nccs2)=C1C#N (stereo not given) |
| 706 s | O=c1ccc(N2CCCC(NS(=O)(=O)c3ccc(F)c(Cl)c3)C2)n[nH]1 (stereo not given) |
| 668 s | Cc1cc(=O)n(CC(=O)Nc2ccc(C)c(C)c2)c(N2CCCC2)n1 |
| 790 s | Cc1cc(-c2nnc(C3CC3)o2)c(C)n1CC(=O)NC(C)c1ccccc1 (stereo not given) |
| 1030 s | CCCN1C(=O)COc2ccc(-c3csc(NC(=O)c4ccccc4Cl)n3)cc21 |

| SMILES | RP-LC retention time |
| --- | --- |
| CN1CCC(c2c[nH]c3ccccc23)C1 (stereo not given) | 648 s |
